Assay results taken from ChEMBL document CHEMBL1144193, “Design, synthesis, and evaluation of novel aryl-tetrahydropyridine PPARalpha/gamma dual agonists” (Bioorg Med Chem Lett, 2008).
pEC50: −log10 of the molar value. ≈ marks a conversion by molar mass, not a printed value.

Columns and labels:
[1] = biological target: T1, Peroxisome proliferator-activated receptor alpha (Homo sapiens, UniProt Q07869); assay: Agonist activity at human PPARalpha expressed in african green monkey CV-1 by co-transfected with GAL4 by dual-glo luciferase reporter gene assay; format: functional
T1 sequence (Q07869 whole entry): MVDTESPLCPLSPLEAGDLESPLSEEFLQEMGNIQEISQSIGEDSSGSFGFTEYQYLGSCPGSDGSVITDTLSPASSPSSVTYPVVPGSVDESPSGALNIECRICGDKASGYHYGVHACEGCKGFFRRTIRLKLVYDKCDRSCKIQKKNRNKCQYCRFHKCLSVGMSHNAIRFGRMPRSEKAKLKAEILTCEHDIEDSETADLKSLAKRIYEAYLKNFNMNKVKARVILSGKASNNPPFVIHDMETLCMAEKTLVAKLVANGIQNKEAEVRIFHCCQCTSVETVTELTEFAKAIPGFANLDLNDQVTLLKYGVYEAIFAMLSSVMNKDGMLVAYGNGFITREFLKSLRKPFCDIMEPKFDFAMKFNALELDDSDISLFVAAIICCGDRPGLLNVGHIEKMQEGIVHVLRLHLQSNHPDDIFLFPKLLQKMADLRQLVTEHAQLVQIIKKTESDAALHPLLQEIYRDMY

[2] = biological target: T2, Peroxisome proliferator-activated receptor gamma (Homo sapiens, UniProt P37231)
T2 sequence (P37231 whole entry): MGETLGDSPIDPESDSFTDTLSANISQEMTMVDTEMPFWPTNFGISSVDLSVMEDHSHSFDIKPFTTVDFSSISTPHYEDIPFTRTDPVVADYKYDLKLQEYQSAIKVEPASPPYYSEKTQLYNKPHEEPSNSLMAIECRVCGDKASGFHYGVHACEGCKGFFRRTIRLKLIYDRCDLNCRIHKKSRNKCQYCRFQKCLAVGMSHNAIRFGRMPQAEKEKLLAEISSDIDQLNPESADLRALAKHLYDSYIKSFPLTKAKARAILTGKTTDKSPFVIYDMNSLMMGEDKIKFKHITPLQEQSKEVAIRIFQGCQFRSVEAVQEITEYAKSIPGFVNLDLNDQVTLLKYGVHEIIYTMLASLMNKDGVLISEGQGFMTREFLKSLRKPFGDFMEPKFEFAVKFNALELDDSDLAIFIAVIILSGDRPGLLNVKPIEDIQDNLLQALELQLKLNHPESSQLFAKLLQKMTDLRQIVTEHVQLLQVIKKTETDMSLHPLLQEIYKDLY
Description: Agonist activity at human PPARgamma expressed in african green monkey CV-1 co-transfected with GAL4 by dual-glo luciferase reporter gene assay

[3] = AUC (0 to 24 hrs) in Sprague-Dawley rat at 3 mg/kg, po; format: ADME, organism-based; design: time < 24 hr, dose 3 mg/kg, route oral; details: plasma
Mus musculus [4] = assay: Antihyperglycemic activity in db/db mouse assessed as increase in body weight at 0.3 mg/kg, po once daily after 28 days; format: functional
[5] = Oral bioavailability in Sprague-Dawley rat at 3 mg/kg; format: ADME, organism-based; details: in vivo
Mus musculus [6] = assay: Antihyperglycemic activity in db/db mouse assessed as increase in body weight at 1 mg/kg, po once daily after 28 days; format: functional
[7] = Clearance in Sprague-Dawley rat at 3 mg/kg, iv; format: ADME, organism-based; design: dose 3 mg/kg, route intravenous; details: in vivo
[8] = Solubility at pH 6.8; format: physicochemical; details: buffer
Mus musculus [9] = assay: Antihyperglycemic activity in db/db mouse assessed as increase in body weight at 0.03 mg/kg, po once daily after 28 days; format: functional
Mus musculus [10] = assay: Antihyperglycemic activity in db/db mouse assessed as reduction in plasma glucose level at 0.3 mg/kg, po once daily after 28 days relative to non-fasting control; format: functional; design: scale not given: the % may be the effect or the level left
Mus musculus [11] = assay: Antihyperglycemic activity in db/db mouse assessed as reduction in plasma glucose level at 0.03 mg/kg, po once daily after 28 days relative to non-fasting control; format: functional; design: scale not given: the % may be the effect or the level left
[12] = Volume of distribution at steady state in Sprague-Dawley rat at 3 mg/kg, iv; details: in vivo
Mus musculus [13] = assay: Antihyperglycemic activity in db/db mouse assessed as reduction in plasma glucose level at 1 mg/kg, po once daily after 28 days relative to non-fasting control; format: functional; design: scale not given: the % may be the effect or the level left
Mus musculus [14] = assay: Antihyperglycemic activity in db/db mouse assessed as reduction in plasma glucose level at 0.1 mg/kg, po once daily after 28 days relative to non-fasting control; format: functional; design: scale not given: the % may be the effect or the level left
[15] = AUC (0 to 24 hrs) in Sprague-Dawley rat at 3 mg/kg, iv; format: ADME, organism-based; design: time < 24 hr, dose 3 mg/kg, route intravenous; details: plasma
[16] = Cmax in Sprague-Dawley rat at 3 mg/kg, po; format: ADME, organism-based; design: dose 3 mg/kg, route oral; details: in vivo
[17] = Tmax in Sprague-Dawley rat at 3 mg/kg, po; format: ADME, organism-based; design: dose 3 mg/kg, route oral; details: in vivo
Mus musculus [18] = assay: Antihyperglycemic activity in po dosed db/db mouse assessed as reduction in glucose level after 28 days; format: functional; details: 672 h
[19] = Half life in Sprague-Dawley rat at 3 mg/kg, iv; format: ADME, organism-based; design: dose 3 mg/kg, route intravenous; details: in vivo
Mus musculus [20] = assay: Antihyperglycemic activity in db/db mouse assessed as increase in body weight at 0.1 mg/kg, po once daily after 28 days; format: functional
Mus musculus [21] = assay: Antihyperglycemic activity in db/db mouse assessed as reduction in plasma glucose level at 3 mg/kg, po once daily after 28 days relative to non-fasting control; design: scale not given: the % may be the effect or the level left
Mus musculus [22] = assay: Antihyperglycemic activity in db/db mouse assessed as increase in body weight at 3 mg/kg, po once daily after 28 days

| Structure (SMILES) | pEC50 [1] | pEC50 [2] | also measured |
| --- | --- | --- | --- |
| CCOC(Cc1ccc(OCCN2CC=C(c3ccc(Cl)cc3)CC2)cc1)C(=O)O (stereo not drawn) | 5.15 | 5.69 | – |
| CCOC(Cc1ccc(OCCN2CC=C(c3cccc(Cl)c3)CC2)cc1)C(=O)O (stereo not drawn) | 5.49 | 5.78 | – |
| CCOC(Cc1ccc(OCCN2CC=C(c3cccc(C(F)(F)F)c3)CC2)cc1)C(=O)O (stereo not drawn) | 5.51 | 5.65 | – |
| CCOC(Cc1ccc(OCCN2CC=C(c3ccccc3)CC2)cc1)C(=O)O (stereo not drawn) | 5.22 | 5.67 | – |
| CCCc1ccc(C2=CCN(CCOc3ccc(CC(OCC)C(=O)O)cc3)CC2)cc1 (stereo not drawn) | 5.68 | 6.76 | – |
| CCOC(Cc1ccc(OCCN2CC=C(c3ccc(Cl)cc3Cl)CC2)cc1)C(=O)O (stereo not drawn) | 5.95 | 6.15 | – |
| CCO[C@@H](Cc1ccc(OCCN2CC=C(c3ccc(Cl)c(Cl)c3)CC2)cc1)C(=O)O | 6.21 | 6.06 | – |
| CCOC(Cc1ccc(OCCN2CC=C(c3ccc(F)cc3)CC2)cc1)C(=O)O (stereo not drawn) | 5.65 | 5.43 | – |
| CCOC(Cc1ccc(OCCN2CC=C(c3ccc(OC)cc3)CC2)cc1)C(=O)O (stereo not drawn) | 4.95 | 6.40 | – |
| CCOC(Cc1ccc(OCCN2CC=C(c3cc(Cl)cc(Cl)c3)CC2)cc1)C(=O)O (stereo not drawn) | 5.52 | 5.85 | – |
| CCOC(Cc1ccc(OCCN2CC=C(c3cccc(OC)c3)CC2)cc1)C(=O)O (stereo not drawn) | 4.76 | 5.62 | – |
| CCOC(Cc1ccc(OCCCN2CC=C(c3ccc(C(F)(F)F)cc3)CC2)cc1)C(=O)O (stereo not drawn) | 5.01 | 6.30 | – |
| CC(C)(Oc1ccc(OCCN2CC=C(c3ccc(Cl)cc3)CC2)cc1)C(=O)O | 6.06 | 4.64 | – |
| CC(C)(Oc1cccc(OCCN2CC=C(c3ccc(Cl)cc3)CC2)c1)C(=O)O | 6.48 | 4.73 | – |
| CCOC(Cc1ccc(OCCN2CC=C(c3ccc(CC)cc3)CC2)cc1)C(=O)O (stereo not drawn) | 5.12 | 6.16 | – |
| CCOC(Cc1ccc(OCCN2CC=C(c3cc(Cl)ccc3Cl)CC2)cc1)C(=O)O (stereo not drawn) | 5.95 | 5.84 | – |
| CCOC(Cc1ccc(OCCN2CC=C(c3ccc(Cl)c(Cl)c3)CC2)cc1)C(=O)O (stereo not drawn) | 5.94 | 6.17 | – |

| Structure (SMILES) | pEC50 [1] | pEC50 [2] | also measured |
| --- | --- | --- | --- |
| CCOC(Cc1ccc(OCCN2CC=C(c3cccs3)CC2)cc1)C(=O)O (stereo not drawn) | 5.07 | 5.48 | – |
| CCC(Cc1ccc(OCCN2CC=C(c3ccc(Cl)cc3)CC2)cc1)C(=O)O (stereo not drawn) | 5.41 | 5.28 | – |
| CC(Cc1ccc(OCCN2CC=C(c3ccc(Cl)cc3)CC2)cc1)(Oc1ccccc1)C(=O)O (stereo not drawn) | 4.59 | 5.31 | – |
| CCOC(Cc1ccc(OCCN2CC=C(c3ccccc3OC)CC2)cc1)C(=O)O (stereo not drawn) | 4.74 | 5.41 | – |
| CCOC(Cc1ccc(OCCN2CC=C(c3cnccn3)CC2)cc1)C(=O)O (stereo not drawn) | 5.44 | 4.90 | – |
| CCOC(Cc1ccc(OCCCN2CC=C(c3ccc(Cl)cc3)CC2)cc1)C(=O)O (stereo not drawn) | 5.01 | 5.63 | – |
| CCOC(Cc1ccc(OCCN2CC=C(c3ccccn3)CC2)cc1)C(=O)O (stereo not drawn) | 4.99 | 5.64 | – |
| CCO[C@@H](Cc1ccc(OCCN2CC=C(c3ccc(Cl)cc3)CC2)cc1)C(=O)O | 5.76 | 6.19 | AUC(0-t) at 24 h [3]: 270 µM·h; Activity (Mus musculus [4]): 12.6 g; bioavailability [5]: > 100%; Activity (Mus musculus [6]): 13.7 g; clearance [7]: 0.23 mL/min/kg; solubility [8]: 3260 µg/mL (≈ 7590 µM); Activity (Mus musculus [9]): 11.2 g; Activity (Mus musculus [10]): 63%; Activity (Mus musculus [11]): 14%; Vd [12]: 0.44 L/kg; Activity (Mus musculus [13]): 77%; Activity (Mus musculus [14]): 37%; AUC(0-t) at 24 h [15]: 272 µM·h; Cmax [16]: 15.9 µM; Tmax [17]: 30 min; ED30 (Mus musculus [18]): 0.067 mg/kg; half-life [19]: 1380 min; Activity (Mus musculus [20]): 12.4 g |
| CCOC(Cc1ccc(OCCN2CC=C(c3ccccc3C(F)(F)F)CC2)cc1)C(=O)O (stereo not drawn) | 6.27 | 5.12 | – |
| CCOC(Cc1ccc(OCCN2CC=C(c3ccccc3Cl)CC2)cc1)C(=O)O (stereo not drawn) | 5.11 | 5.23 | – |
| CCOC(Cc1ccc(OCCN2CC=C(c3ccc(C(F)(F)F)cc3)CC2)cc1)C(=O)O (stereo not drawn) | 5.47 | 5.72 | – |
| CCOC(Cc1ccc(OCCN2CC=C(c3cccc(Cl)c3Cl)CC2)cc1)C(=O)O (stereo not drawn) | 7.19 | 6.18 | – |
| CCOC(Cc1ccc(OCCN2CC=C(c3ncccn3)CC2)cc1)C(=O)O (stereo not drawn) | 5.12 | 5.34 | – |
| CCOC(Cc1ccc(OCCCN2CC=C(c3ccc(Cl)c(Cl)c3)CC2)cc1)C(=O)O (stereo not drawn) | 5.77 | 6.14 | – |
| COc1ccc(OC(=O)N(CC(=O)O)Cc2ccc(OCCc3nc(-c4ccccc4)oc3C)cc2)cc1 [MURAGLITAZAR] | 5.39 | – | AUC(0-t) at 24 h [3]: 98.8 µM·h; Activity (Mus musculus [4]): 12.7 g; bioavailability [5]: 96.2%; Activity (Mus musculus [6]): 14.5 g; clearance [7]: 0.73 mL/min/kg; solubility [8]: 41 µg/mL (≈ 79.4 µM); Activity (Mus musculus [10]): 11%; Activity (Mus musculus [21]): 78%; Vd [12]: 0.57 L/kg; Activity (Mus musculus [13]): 54%; Activity (Mus musculus [14]): 4%; Activity (Mus musculus [22]): 16.1 g; AUC(0-t) at 24 h [15]: 101 µM·h; Cmax [16]: 25.8 µM; Tmax [17]: 34.8 min; ED30 (Mus musculus [18]): 0.411 mg/kg; half-life [19]: 840 min; Activity (Mus musculus [20]): 10.5 g |
| CN(CCOc1ccc(CC2SC(=O)NC2=O)cc1)c1ccccn1 (stereo not drawn) [ROSIGLITAZONE] | – | – | AUC(0-t) at 24 h [3]: 94.2 µM·h; Activity (Mus musculus [4]): 11.1 g; bioavailability [5]: > 100%; Activity (Mus musculus [6]): 12.5 g; clearance [7]: 2.99 mL/min/kg; solubility [8]: 14 µg/mL (≈ 39.2 µM); Activity (Mus musculus [10]): 37%; Activity (Mus musculus [21]): 68%; Activity (Mus musculus [13]): 56%; Activity (Mus musculus [14]): 17%; Activity (Mus musculus [22]): 13.9 g; AUC(0-t) at 24 h [15]: 53.7 µM·h; Cmax [16]: 44.3 µM; Tmax [17]: 15 min; ED30 (Mus musculus [18]): 0.21 mg/kg; half-life [19]: 63 min; Activity (Mus musculus [20]): 10.5 g |
| CCO[C@@H](Cc1ccc(OCCc2ccc(OS(C)(=O)=O)cc2)cc1)C(=O)O [TESAGLITAZAR] | 5.51 | 6.15 | – |
